Experimental data: patent US5985273A, “Biological control of insects” (priority 1994, dated 1999)

How the values were obtained:
O. surinamensis larvae = test: Weight reduction of Oryzaephylus surinamensis larvae in treated flour; type: in vivo
Description: Insects were cultured in cleaned, ground and sieved wholemeal flour made from organic wheat. Inhibitors from bottles of pre-weighed material were dry-mixed with the flour and residual inhibitor rinsed from bottles with a small volume of water. Rinse water was added to the flour and the mixture re-ground. The impregnated flour was transferred to a 20 mL vial and mixed thoroughly by shaking and inverting.
Adults of T. castaneum were allowed to oviposit on flour, eggs were sifted from the flour and transferred one by one with a single hair to microwell tubes containing a small amount of flour. Each level of treatment was performed in triplicated using 32 wells/replicate. Assays were performed in triplicated. Cultures were incubated at 30° C. and 55% R H.
The bioassay for this insect was outlined for T. castaneum, except incubations were conducted at 32.5° C. and 70% R H. After 8 days the insects were sieved from the flour and weighed.

L. cuprina eggs = test: Egg hatch of L. cuprina on liver in vitro; type: in vivo, Lucilia cuprina; settings: 24 hours at 35° C., control 71
Description: L. cuprina eggs were placed on pieces of liver (0.9 g) which were then placed in individual wells of a 24-well tissue culture plate. Phosphate buffered saline (PBS, 0.1 ml) containing inhibitors at set concentrations were added to each well with 30 freshly laid and sterilised eggs of L. cuprina. The culture plate was then maintained in a sterile environment at 35° C. for 24 hours, after which time the percentage hatch was assessed.

Teleogryllus commodus = test: Mortality of black field cricket nymphs on treated cabbage leaf disks; type: in vivo; settings: 30 mM; after 7 days
Description: (i) Stock solutions of inhibitors and control solutions were prepared as aqueous solutions or suspensions as outlined in Table 6.1.
(ii) Mortality was assessed by commencing the study with 1st instar nymphs.
(iii) Cabbage leaf disks (5×8 mm diameter disks/treatment) were smeared with 100 μl of inhibitor or control stock solutions and allowed to dry. Disks were placed singly in 40 mm petri dishes, together with a moist cotton wool pas as water supply and a piece of fluted plastic for shelter.
(iv) Ten nymphs were placed on each disc and the dishes incubated at 25° C.
(v) Mortality was assessed daily and any dead individuals removed.

Lucilia cuprina larvae = test: Growth and survival of first instar sheep blowfly larvae on culture medium with inhibitor; type: in vivo; settings: for % Growth Incubation / Average Larval Weight: Table 2.3; for Average Larval Weight: control 9.08
[1] = tested on: Heliothis punctigens larvae; test: Growth and survival of cotton budworm larvae fed an artificial diet; type: in vivo; settings: 10 days; for % Alive: control 70.0; for Average Laval Weight: control 165.4
Description: 1. The Haricot beans were cooked in a microwave for 40 minutes. 2. Agar was added to the hot water and stirred on a hot plate until almost boiling. 3. The haricot beans, agar mix, yeast and wheat germ was blended in an electric mixer for 3 minutes. 4. When the temperature has dropped to 60°C., the acids were added and mixed with the media. […] Inhibitor solutions or an equal volume of water were placed into sterilized glass tubes at designated concentrations. The artificial media was added to each tube (1.5 ml) using a sterile 10 ml syringe. First instar Heliothis punctigens larvae (1 larvae per tube) were added to the glass tubes and the tubes were capped. The tubes were incubated for 10 days at 25° C. The larvae were killed by placing the glass tubes at -70° C. for 24 hours, and then individually weighed. Percentage inhibition was calculated by comparison to control larvae.

Ctenocephalides felis = test: Development of cat flea eggs in dried blood diets; type: in vivo; settings: Day 16
Description: Blood was collected from the jugular vein of a five year old merino sheep that had not been treated with an ectoparasitic agent for 18 months. The blood was collected into a 100 ml plastic bottle containing 0.8 ml of heparin and was maintained at 4° C. Inhibitors were pre-weighed into sterile 5 ml plastic vials and 4.5 ml of blood added. The samples were mixed, placed at -70° C. for 24 hours, then freeze-dried. The freeze-dried samples were sieved through a stainless steel 63 micron sieve, and placed into sterile 5 ml plastic vials (0.15 g/per tube). Four flea eggs were placed into each vial, and a sheet of tissue paper fastened by an elastic band was fitted to the top of each vial. The vials were incubated at 25° C. and 70-80% R H for 6 days. Vermiculite was then added to each vial to provide a supporting medium for the fleas to pupate and the tubes incubated at 25° C. and 70-80% R H, for a further 10 days. Ten control vials and three vials of each treatment were tested.
At the conclusion of the incubation period the vials were placed at -20° C. for 24 hours to kill the fleas. The number of eggs hatched and the life-cycle state was recorded.

[2] = tested on: Bovicola ovis (Hartley strain); test: Survival of sheep lice on inhibitor treated wool; type: in vivo; settings: of 10 lice
Tribolium castaneum = test: Growth and survival of Tribolium castaneum in treated flour; type: in vivo; settings: Day 6; all dose levels
Description: Insects were cultured in cleaned, ground and sieved wholemeal flour made from organic wheat. Inhibitors from bottles of pre-weighed material were dry-mixed with the flour and residual inhibitor rinsed from bottles with a small volume of water. Rinse water was added to the flour and the mixture re-ground. The impregnated flour was transferred to a 20 mL vial and mixed thoroughly by shaking and inverting. Adults of T. castaneum were allowed to oviposit on flour, eggs were sifted from the flour and transferred one by one with a single hair to microwell tubes containing a small amount of flour. Each level of treatment was performed in triplicated using 32 wells/replicate. Assays were performed in triplicated. Cultures were incubated at 30° C. and 55% R H. After 6 days each replicate of 32 wells was combined, the larvae counted and the numbers compared with numbers in the control (no inhibitor) treatment. Larvae were classified as "small" if appreciably smaller than reference larvae, or abnormal if unusual behaviour or formation were observed (eg. twisting or twisted larvae). Test inhibitors and dose rates were the same as those used in Example 4.

## O=C(O)CN(CCN(CC(=O)O)CC(=O)O)CC(=O)O [EDTA, ethylene diamine tetraacetic acid]
O. surinamensis larvae; 192 h, 10 mM, 8 days, relative to untreated larvae, read-out: Percentage Growth Inhibition
  inhibition at 10000 µM: 32%
O. surinamensis larvae; 192 h, 20 mM, 8 days, relative to untreated larvae, read-out: Percentage Growth Inhibition
  inhibition at 20000 µM: 4%
O. surinamensis larvae; 192 h, 30 mM, 8 days, relative to untreated larvae, read-out: Percentage Growth Inhibition
  inhibition at 30000 µM: 28%
O. surinamensis larvae; text summary of Table 9.1
  Growth inhibition, summary in words: moderately effective
L. cuprina eggs; 2 mM
  % Hatch: 10%
L. cuprina eggs; 5 mM
  % Hatch: 0%
L. cuprina eggs; 10 mM
  % Hatch: 10%
Teleogryllus commodus
  Mortality: 78%
  Mortality (class): High (high 41-100%)
Lucilia cuprina larvae; Example 1, Table 1.2
  Effect on larval growth, summary in words: effective growth inhibitors
Lucilia cuprina larvae; Lucilia cuprina, first instar larvae, 5 mM
  inhibition at 5000 µM: 84%
Lucilia cuprina larvae; 0.25 mM
  % Growth Incubation: -6.6%
  Average Larval Weight: 9.68 10^-4 g
Lucilia cuprina larvae; 0.50 mM
  % Growth Incubation: 39.8%
  Average Larval Weight: 5.47 10^-4 g
Lucilia cuprina larvae; 1.0 mM
  % Growth Incubation: 69.7%
  Average Larval Weight: 2.75 10^-4 g
Lucilia cuprina larvae; 1.5 mM
  % Growth Incubation: 51.2%
  Average Larval Weight: 4.43 10^-4 g
Lucilia cuprina larvae; 2.0 mM
  % Growth Incubation: 72.4%
  Average Larval Weight: 2.51 10^-4 g
Lucilia cuprina larvae; first instar larvae, 10 mM
  Larval survival: All killed
[1]; 2.5 mM
  % Alive: 50.0%
  Average Laval Weight: 123.6 mg
[1]; 5.0 mM
  % Alive: 33.3%
  Average Laval Weight: 9.25 mg
[1]; 10.0 mM
  % Alive: 67.0%
  Average Laval Weight: 4.75 mg
[1]; Heliothis, 240 h, 2.5 mM, read-out: % Growth Inhibition
  inhibition at 2500 µM: 25.3%
[1]; Heliothis, 240 h, 5.0 mM, read-out: % Growth Inhibition
  inhibition at 5000 µM: 94.4%
[1]; Heliothis, 240 h, 10.0 mM
  inhibition at 10000 µM: 97.1%
Ctenocephalides felis; 1.5625 mg in 4.5 ml of blood, control 97.5
  Percentage of Fleas Progressing Through to Pupation: 0%
Ctenocephalides felis; 3.125 mg in 4.5 ml of blood
  Percentage of Fleas Progressing Through to Pupation: 0%
Ctenocephalides felis; 6.25 mg in 4.5 ml of blood
  Percentage of Fleas Progressing Through to Pupation: 0%
[2]; Adult, 10 mM, 24 Hours at 35° C.
  Number of Living Lice: 2
[2]; Adult, 20 mM, 24 Hours at 35° C.
  Number of Living Lice: 1
[2]; Adult, third EDTA line, concentration not given, 24 Hours
  Number of Living Lice: 0
[2]; instar 1, 10 mM, 24 Hours at 35° C.
  Number of Living Lice: 0
[2]; instar 1, 20 mM, 24 Hours at 35° C.
  Number of Living Lice: 0
[2]; instar 1, third EDTA line, concentration not given, 24 Hours
  Number of Living Lice: 0
[2]; instar 2, 10 mM, 24 Hours at 35° C.
  Number of Living Lice: 2
[2]; instar 2, 20 mM, 24 Hours at 35° C.
  Number of Living Lice: 1
[2]; instar 2, third EDTA line, concentration not given, 24 Hours
  Number of Living Lice: 0
[2]; instar 3, 10 mM, 24 Hours at 35° C.
  Number of Living Lice: 1
[2]; instar 3, 20 mM, 24 Hours at 35° C.
  Number of Living Lice: 0
[2]; instar 3, third EDTA line, concentration not given, 24 Hours
  Number of Living Lice: 0
Tribolium castaneum
  Larval size classification: small
